Results as given in PMC10728897, “High-Throughput Engineering of Nonribosomal Extension Modules” (ACS Chemical Biology, 2023).

What was measured:
TycB2 A-T bidomain = target: T1, TycB2 A-T bidomain (Brevibacillus parabrevis, UniProt O30408, M1767A/M1802I, form not given); experiment: yeast surface display loading assay, click biotinylation, flow cytometry; type: cell-based; conditions: 0.5 mM pPhe with 0.5 mM L-Phe as competitor, 0.1 mM ATP, pH 7.4, 25 C; covalent loading on ppant of T domain
T1 construct: gene tycB; ppant installed by Sfp
T1 sequence (O30408 1530-2090 M1767A/M1802I, form open): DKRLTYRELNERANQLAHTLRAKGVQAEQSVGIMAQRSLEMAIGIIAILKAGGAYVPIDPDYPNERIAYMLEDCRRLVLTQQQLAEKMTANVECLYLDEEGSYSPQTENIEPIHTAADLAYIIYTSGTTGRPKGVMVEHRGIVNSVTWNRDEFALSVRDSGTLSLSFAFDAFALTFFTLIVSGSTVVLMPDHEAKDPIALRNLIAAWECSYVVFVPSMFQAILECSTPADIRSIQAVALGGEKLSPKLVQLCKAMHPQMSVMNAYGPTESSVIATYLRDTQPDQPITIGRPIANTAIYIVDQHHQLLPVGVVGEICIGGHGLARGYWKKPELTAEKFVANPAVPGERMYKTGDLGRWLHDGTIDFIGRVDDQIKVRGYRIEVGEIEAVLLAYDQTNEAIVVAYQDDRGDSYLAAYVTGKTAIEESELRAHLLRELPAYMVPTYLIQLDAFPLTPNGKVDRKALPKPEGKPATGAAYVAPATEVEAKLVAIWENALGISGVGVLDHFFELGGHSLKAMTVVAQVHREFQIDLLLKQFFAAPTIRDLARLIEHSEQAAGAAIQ

TycC6 C-A-T tridomain = target: T2, TycC6 C-A-T tridomain (Brevibacillus parabrevis, UniProt O30409); experiment: as above; type: cell-based; conditions: 20 and 50 mM pGly, 0.1 mM ATP, 1 mM MgCl2, pH 7.4, 25 C; covalent loading on ppant of T domain; modest efficiency
T2 construct: gene tycC; ppant installed by Sfp
T2 sequence (O30409 5200-6255 limits assumed): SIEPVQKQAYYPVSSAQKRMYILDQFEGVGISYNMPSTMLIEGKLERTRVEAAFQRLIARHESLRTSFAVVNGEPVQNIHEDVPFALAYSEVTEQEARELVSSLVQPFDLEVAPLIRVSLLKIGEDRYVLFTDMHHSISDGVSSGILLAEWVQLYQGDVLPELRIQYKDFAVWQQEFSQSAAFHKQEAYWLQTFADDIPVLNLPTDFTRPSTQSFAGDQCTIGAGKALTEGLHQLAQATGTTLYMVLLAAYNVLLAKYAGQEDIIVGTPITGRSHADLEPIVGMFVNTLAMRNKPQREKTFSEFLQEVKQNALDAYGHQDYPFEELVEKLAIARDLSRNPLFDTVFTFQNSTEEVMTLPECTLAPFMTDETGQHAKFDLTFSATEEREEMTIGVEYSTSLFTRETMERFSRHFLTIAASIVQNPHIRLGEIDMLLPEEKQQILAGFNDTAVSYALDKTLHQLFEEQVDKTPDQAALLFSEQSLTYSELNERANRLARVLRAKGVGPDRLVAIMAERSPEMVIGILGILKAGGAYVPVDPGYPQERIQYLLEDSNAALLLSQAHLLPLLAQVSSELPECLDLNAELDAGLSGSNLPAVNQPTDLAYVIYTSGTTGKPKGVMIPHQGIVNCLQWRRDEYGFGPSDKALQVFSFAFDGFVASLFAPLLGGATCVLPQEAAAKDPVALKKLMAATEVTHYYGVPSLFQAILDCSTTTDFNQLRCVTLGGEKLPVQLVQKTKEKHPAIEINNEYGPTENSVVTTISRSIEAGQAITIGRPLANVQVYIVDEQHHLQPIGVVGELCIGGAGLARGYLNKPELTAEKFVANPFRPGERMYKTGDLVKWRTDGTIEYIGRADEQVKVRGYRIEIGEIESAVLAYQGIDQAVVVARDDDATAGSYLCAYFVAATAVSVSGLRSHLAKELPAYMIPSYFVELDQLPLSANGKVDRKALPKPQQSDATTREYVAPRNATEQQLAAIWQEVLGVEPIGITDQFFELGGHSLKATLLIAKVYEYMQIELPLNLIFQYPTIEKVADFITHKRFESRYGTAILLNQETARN

Row | SMILES | yeast surface display loading assay, click biotinylation, flow cytometry (TycB2 A-T bidomain) | yeast surface display loading assay, click biotinylation, flow cytometry (TycC6 C-A-T tridomain)
1 | C#CCOc1ccc(C[C@H](N)C(=O)O)cc1 [pPhe, 4-propargyloxy-L-phenylalanine] | the variant with the M1768A and M1803I mutations was the most active and selective | 
2 | C#CCC(N)C(=O)O (centres unmarked) [pGly, propargyl glycine] |  | the displayed module was found to activate pGly in a concentration-dependent manner
